In one test the test system is CNS cell. In words: Growth inhibitory concentration dissolved in DMSO against human CNS cell line at 10E-4 M concentration. It counts as functional.
Test [1] deals with Colon cell. In words: Total growth inhibition of human Colon cell line at 10E-4 M concentration. It counts as functional. Also on record: unit not given here.
Test [2] deals with NSCLC. As to the kind of experiment: Total growth inhibition of human NSCLC cell line at 10E-4 M concentration. It counts as functional.
The subject of test [3] is Breast carcinoma cell. As to the kind of experiment: Total growth inhibition of human Breast cell line at 10E-4 M concentration. Type of test: functional.
Test [4] concerns Panel NCI-60 (60 carcinoma cell lines). As to the kind of experiment: Total growth inhibition of human MG-MID cell line at 10E-4 M concentration. Type of test: functional.
For test [5], the system named is Ovarian carcinoma cell. In words: Total growth inhibition of human Ovarian cell line at 10E-4 M concentration. It counts as functional.
Test [6] concerns Melanoma cell. As to the kind of experiment: Total growth inhibition of human Melanoma cell line at 10E-4 M concentration. It counts as functional.
The subject of test [7] is Prostate cell. In words: Total growth inhibition of human Prostate cell line at 10E-4 M concentration. It counts as functional.
The test system of test [8] is Prostate cell. In words: Growth inhibitory concentration dissolved in DMSO against human Prostate cell line at 10E-4 M concentration. Type of test: functional.
For test [9], the system named is Ovarian carcinoma cell. As to the kind of experiment: Growth inhibitory concentration dissolved in DMSO against human Ovarian cell line at 10E-4 M concentration. It counts as functional.
The test system of test [10] is Melanoma cell. In words: Growth inhibitory concentration dissolved in DMSO against human Melanoma cell line at 10E-4 M concentration. Type of test: functional.
Test [11] relates to Colon cell. In words: Growth inhibitory concentration dissolved in DMSO against human Colon cell line at 10E-4 M concentration. It counts as functional.
The test system of test [12] is NSCLC. As to the kind of experiment: Growth inhibitory concentration dissolved in DMSO against human NSCLC cell line at 10E-4 M concentration. Type of test: functional. Also on record: unit not given here.
The subject of the next test is Renal cell. As to the kind of experiment: Growth inhibitory concentration dissolved in DMSO against human Renal cell line at 10E-4 M concentration. Set-up: unit not given here. It counts as functional.
Test [13] deals with Breast carcinoma cell. As to the kind of experiment: Growth inhibitory concentration dissolved in DMSO against human Breast cell line at 10E-4 M concentration. Type of test: functional.
For test [14], the system named is Panel NCI-60 (60 carcinoma cell lines). As to the kind of experiment: Growth inhibitory concentration dissolved in DMSO against human MG-MID cell line at 10E-4 M concentration. Type of test: functional.
In test [15] the test system is Colon cell. As to the kind of experiment: Cytotoxic effect dissolved in DMSO against Colon cell line at 10E-4 M concentration. Type of test: functional, Homo sapiens.
The test system of test [16] is Breast carcinoma cell. In words: Cytotoxic effect dissolved in DMSO against Breast cell line at 10E-4 M concentration. Type of test: functional, Homo sapiens.
In test [17] the test system is Panel NCI-60 (60 carcinoma cell lines). In words: Cytotoxic effect dissolved in DMSO against MG-MID cell line at 10E-4 M concentration. It counts as functional, Homo sapiens.
Test [18] has as its system Ovarian carcinoma cell. As to the kind of experiment: Cytotoxic effect dissolved in DMSO against Ovarian cell line at 10E-4 M concentration. It counts as functional, Homo sapiens.
Test [19] relates to Melanoma cell. In words: Cytotoxic effect dissolved in DMSO against Melanoma cell line at 10E-4 M concentration. Type of test: functional, Homo sapiens.

“And” between values parts separate entries of the source, which are not always exact repeats. Equal values may be shown once.

With `COc1ccc2c(c1)/C(=C\c1c(C)nc3sc(C)cn13)C(=O)N2C`, the figures for the “pGI50 (-log GI50, M)” value in the test with CNS cell and in the test with Breast carcinoma cell [13] were 5.46 and 5.6, respectively. In addition, the TGI with Colon cell [1] is 4.55 and 4.59; in the test on NSCLC [2], 4.4; with Breast carcinoma cell [3], 4.87; in [4], 4.46; in the test with Ovarian carcinoma cell [5] it was 4.42; in the test with Melanoma cell [6], 4.45. For the same molecule, the TGI in the test with Prostate cell [7] turned out to be 4.1. Further, the “pGI50 (negative log molar GI50)” value with Prostate cell [8] is 5.06. Moreover, the “pGI50 (negative log of GI50 in M)” value with Ovarian carcinoma cell [9] stood at 5.16. In addition, the “pGI50 (-log molar GI50)” value in the test on Melanoma cell [10] stood at 5.26. Further, in the test with Colon cell [11], the “pGI50 (negative log of molar GI50)” value came out at 5.49. In addition, the GI50 with NSCLC [12] turned out to be 5.11; in the test with Renal cell it was 5.32; in test [14], 5.35. The LC50 turned out to be 4.09 in the test on Colon cell [15]; 4.03 with Breast carcinoma cell [16]; 4.03 in test [17]; 4.02 in the test with Ovarian carcinoma cell [18]; 4.13 in the test with Melanoma cell [19].

`COc1cc2c(cc1C)NC(=O)/C2=C/c1c(C)nc2sc(C)cn12`: the results for the “pGI50 (-log GI50, M)” value in the test with CNS cell and with Breast carcinoma cell [13] were 4.08 and 4.33, respectively. Further, the “pGI50 (negative log molar GI50)” value in the test with Prostate cell [8] came to 4.23. Moreover, in the test with Ovarian carcinoma cell [9], the “pGI50 (negative log of GI50 in M)” value worked out at 4.12. In the test with Melanoma cell [10], the “pGI50 (-log molar GI50)” value is listed as 4.22. The “pGI50 (negative log of molar GI50)” value with Colon cell [11] is listed as 4.21. Moreover, the values for the GI50 (with NSCLC [12]; with Renal cell; in test [14]) were 4.24, 4.09 and 4.22, respectively.

The record behind these values is ChEMBL document CHEMBL1141167, “Antitumor activity of new substituted 3-(5-imidazo[2,1-b]thiazolylmethylene)-2-indolinones and study of their effect on the cell cycle” (2005).
